In PMC11249953, “c-KIT inhibitors reduce pathology and improve behavior in the Tg(SwDI) model of Alzheimer’s disease” (Life Science Alliance, 2024) one finds inhibition and remaining binding data, which are given here for two compounds.

For experiment [1], the target named is T1, RIOK3 (Homo sapiens, UniProt O14730).
T1 construct: DNA label for qPCR read-out (T7 phage fusion or DNA tag); purchased Eurofins DiscoverX Corporation; host or cells: T7 phage in E. coli (BL21-derived) or HEK-293
T1 sequence (O14730 1-519): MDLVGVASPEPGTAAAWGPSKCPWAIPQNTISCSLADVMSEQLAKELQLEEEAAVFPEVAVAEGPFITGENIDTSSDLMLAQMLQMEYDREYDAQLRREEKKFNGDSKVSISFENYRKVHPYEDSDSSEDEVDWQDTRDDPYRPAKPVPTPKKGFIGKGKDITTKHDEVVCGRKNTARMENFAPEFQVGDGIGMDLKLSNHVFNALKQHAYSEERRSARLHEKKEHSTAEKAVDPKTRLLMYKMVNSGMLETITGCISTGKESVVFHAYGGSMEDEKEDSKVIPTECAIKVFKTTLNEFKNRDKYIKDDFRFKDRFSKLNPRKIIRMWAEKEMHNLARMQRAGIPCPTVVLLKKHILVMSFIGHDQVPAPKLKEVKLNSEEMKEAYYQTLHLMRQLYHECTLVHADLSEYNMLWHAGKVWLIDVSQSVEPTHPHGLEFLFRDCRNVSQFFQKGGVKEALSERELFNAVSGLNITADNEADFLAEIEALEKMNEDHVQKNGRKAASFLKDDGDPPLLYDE
Put plainly: KINOMEscan competition binding, RIOK3. The conditions noted are these: 10 µM compound; for remaining binding at 10 µM: lower = stronger binding, read-out: RIOK3 %Ctrl @ 10000nM (POC). The protocol:
(§1) The KINOMEscan screening platform (Eurofins DiscoverX Corporation) was performed using active site-directed competition binding assay to quantitatively measure interactions between BK40143 and BK40197 and more than 450 human kinases and disease relevant mutant variants. […] Screening “hits” are identified by measuring the amount of kinase captured in test (BK40143 and BK40197) versus control samples by using a quantitative and ultra-sensitive qRT-PCR method that detects the associated DNA label. BK40143 and BK40197 were screened at 10 µM concentration, and results for primary screen binding interactions were reported as “% Ctrl” (POC), where lower numbers indicate stronger hits and calculated as follows: [test compound signal−positive control signal/negative control signal−positive control signal]×100
(§2) negative control = DMSO (100% Ctrl)
(§3) positive control = control compound (0% Ctrl)
(§4) Based on screening data from of profiled compounds, a proportional relationship between primary screening results and corresponding compound/target affinities can be described as binding constants (Kd values) for the indicated ranges of POC values with tighter binding (higher affinity) interactions associated with lower POC values and weaker binding (lower affinity) associated with higher POC values. Briefly, kinase-tagged T7 phage strains were grown in parallel in 24-well blocks in an E. coli host derived from the BL21 strain. E. coli were grown to log-phase and infected with T7 phage from a frozen stock (multiplicity of infection = 0.4) and incubated with shaking at 32°C until lysis (90–150 min). The lysates were centrifuged (6,000g) and filtered (0.2 μm) to remove cell debris. The remaining kinases were produced in HEK-293 cells and subsequently tagged with DNA for qRT-PCR detection. Streptavidin-coated magnetic beads were treated with biotinylated small molecule ligands for 30 min at RT to generate affinity resins for kinase assays. The liganded beads were blocked with excess biotin and washed with blocking buffer (1% BSA, 0.05% Tween 20, 1 mM DTT; SeaBlock [Pierce]) to remove unbound ligand and to reduce non-specific phage binding. Binding reactions were assembled by combining kinases, liganded affinity beads, and test compounds in 1x binding buffer (20% 0.17x PBS, 0.05% Tween 20, 6 mM DTT; SeaBlock). Test compounds were prepared as 100x stocks in 100% DMSO and directly diluted into the assay. All reactions were performed in polypropylene 384-well plates in a final volume of 0.02 ml. The assay plates were incubated at RT with shaking for 1 h and the affinity beads were washed with wash buffer (1x PBS, 0.05% Tween 20). […] The kinase concentration in the eluates was measured by qRT-PCR.

For experiment [2], the target named is T2, MEK5 (Homo sapiens, UniProt Q13163).
T2 construct: DNA label for qPCR read-out (T7 phage fusion or DNA tag); purchased Eurofins DiscoverX Corporation; host or cells: T7 phage in E. coli (BL21-derived) or HEK-293
T2 sequence (Q13163 1-448): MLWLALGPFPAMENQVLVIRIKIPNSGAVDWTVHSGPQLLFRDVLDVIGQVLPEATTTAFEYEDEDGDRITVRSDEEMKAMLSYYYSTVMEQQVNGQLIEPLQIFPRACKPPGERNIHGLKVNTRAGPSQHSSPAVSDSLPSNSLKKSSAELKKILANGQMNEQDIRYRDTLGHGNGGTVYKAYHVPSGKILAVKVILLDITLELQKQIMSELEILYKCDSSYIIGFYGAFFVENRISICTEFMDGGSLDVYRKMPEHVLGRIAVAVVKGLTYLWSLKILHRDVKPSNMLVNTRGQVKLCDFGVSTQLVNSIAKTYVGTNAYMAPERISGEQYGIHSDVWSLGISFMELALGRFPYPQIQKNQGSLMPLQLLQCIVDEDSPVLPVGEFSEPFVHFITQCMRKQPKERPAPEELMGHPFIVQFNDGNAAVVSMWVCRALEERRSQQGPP
Put plainly: KINOMEscan competition binding, MEK5. The following applies: 10 µM compound; for remaining binding at 10 µM: lower = stronger binding, read-out: MEK5 %Ctrl @ 10000nM (POC). As for the experimental part: as §1, §2, §3, §4

Usually inhibition stands for the relative decrease from the control value, in per cent. For `Cc1cccc(-c2cc3nccc(Nc4ccccc4)c3s2)c1` [BK40143], in experiment [1], the inhibition at 10 µM was found to be 80% and the remaining binding at 10 µM stood at 20%. Also, in experiment [2], testing at 10 µM gave an inhibition of 99.7% and the remaining binding at 10 µM was 0.35%.

As for `Cc1cccc(-c2cc3nccc(N4CCOCC4)c3s2)c1` [BK40197], in experiment [1], 10 µM produced 95.2% inhibition and the remaining binding at 10 µM was 4.8%. Also, in experiment [2], the inhibition at 10 µM is 93.1% and the remaining binding at 10 µM is 6.9%.
